Test results published in BindingDB's records for patent US8703811 (Genzyme, 2014).

How the values were obtained:
[1] = target: T1, Dihydroorotate dehydrogenase (fumarate) (Saccharomyces cerevisiae (strain ATCC 204508 / S288c), UniProt P28272); assay: Enzymatic Assays
T1 sequence (P28272 whole entry): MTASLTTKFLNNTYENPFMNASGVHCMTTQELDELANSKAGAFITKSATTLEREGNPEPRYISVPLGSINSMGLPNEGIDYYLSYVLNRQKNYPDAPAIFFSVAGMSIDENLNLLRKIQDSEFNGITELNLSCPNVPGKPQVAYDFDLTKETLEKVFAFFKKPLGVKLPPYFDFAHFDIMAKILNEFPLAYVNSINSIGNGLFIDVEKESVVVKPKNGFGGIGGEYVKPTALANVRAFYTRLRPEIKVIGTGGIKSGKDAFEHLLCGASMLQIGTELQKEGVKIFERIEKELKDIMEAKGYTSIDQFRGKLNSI
Description: (§1) Type 2 DHODH activity was monitored with either the direct assay measuring the formation of orotate or via a chromogen reduction assay using DCIP. Although the extinction coefficient and absorption wavelength are preferable for the chromogen reduction assay, the inorganic electron acceptor DCIP can be utilized by DHODH as the final electron acceptor in lieu of CoQn when the endogenous substrate is at a low concentration. As such, the direct assay was used to measure the binding affinity of pfDHODH to CoQD and L-DHO. The enzymatic reaction was performed by varying the L-DHO concentration (1-400 μM) or CoQD concentration (1-200 μM) while keeping the other substrate constant and in excess.

[2] = target: T2, Dihydroorotate dehydrogenase (quinone), mitochondrial [100-517] (Plasmodium berghei (strain Anka), UniProt A0A509AEH5); assay: Enzymatic Assays
T2 construct: 100-517
T2 sequence (A0A509AEH5 whole entry): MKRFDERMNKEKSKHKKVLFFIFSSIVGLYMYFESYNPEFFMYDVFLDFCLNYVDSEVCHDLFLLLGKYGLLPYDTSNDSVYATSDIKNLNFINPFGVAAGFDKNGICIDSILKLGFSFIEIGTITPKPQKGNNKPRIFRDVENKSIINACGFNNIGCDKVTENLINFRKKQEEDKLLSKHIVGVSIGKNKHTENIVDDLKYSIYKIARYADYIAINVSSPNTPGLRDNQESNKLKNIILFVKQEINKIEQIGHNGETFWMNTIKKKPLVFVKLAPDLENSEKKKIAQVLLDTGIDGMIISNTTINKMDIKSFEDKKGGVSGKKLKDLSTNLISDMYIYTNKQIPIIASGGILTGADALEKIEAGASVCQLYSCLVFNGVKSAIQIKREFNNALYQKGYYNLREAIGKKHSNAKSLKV
Description: as §1

| SMILES | IC50 [1] [µM] | IC50 [2] [µM] |
| --- | --- | --- |
| Cc1ccccc1/C=C/c1cc(O)c2ccccc2n1 [US8703811, 2] | > 10 | – |
| Fc1cc(I)ccc1Nc1ccnc2cc(Cl)ccc12 [US8703811, 4] | – | > 10 |
